This note sets out measurements from patent US8734777B2, “Heterocyclic antiviral compounds” (priority 2010, dated 2014).

The target in series [1] is T1, HCV polymerase (NS5B570n-Con1) (Hepatitis C virus genotype 1b, UniProt Q9WMX2).
T1 construct: contains a 21 amino acid deletion at the C-terminus relative to the full-length HCV polymerase; 6-histidine (N); made in house; host or cells: E. coli strain BL21(DE) pLysS, plasmid pET17b
The series can be described thus: HCV NS5B RNA polymerase activity assay. Format: biochemical, HCV Con1 strain. The procedure: The enzymatic activity of HCV polymerase (NS5B570n-Con1) was measured as the incorporation of radiolabeled nucleotide monophosphates into acid insoluble RNA products. Unincorporated radiolabeled substrate was removed by filtration and scintillant was added to the washed and dried filter plate containing radiolabeled RNA product. The amount of RNA product generated by NS5B570-Con1 at the end of the reaction was directly proportional to the amount of light emitted by the scintillant.
The N-terminal 6-histidine tagged HCV polymerase, derived from HCV Con1 strain, genotype 1b (NS5B570n-Con1) contains a 21 amino acid deletion at the C-terminus relative to the full-length HCV polymerase and was purified from E. coli strain BL21(DE) pLysS. The construct, containing the coding sequence of HCV NS5B Con1 (GenBank accession number AJ242654) was inserted into the plasmid construct pET17b, downstream of a T7 promoter expression cassette and transformed into E. coli. A single colony was grown overnight as a starter culture and later used inoculate 10 L of LB media supplemented with 100 μg/mL ampicillin at 37° C. Protein expression was induced by the addition of 0.25 mM isopropyl-β-D-thiogalactopyranoside (IPTG) when optical density at […] of the culture was between 0.6 and 0.8 and cells were harvested after 16 to 18 h at 30° C. NS5B570n-Con1 was purified to homogeneity using a three-step protocol including subsequent column chromatography on Ni-NTA, SP-Sepharose HP and Superdex 75 resins. […]
The amount of light emitted from the scintillant was converted to counts per minute (CPM) on a Topcount® plate reader (Perkin-Elmer, Energy Range: Low, Efficiency Mode: Normal, Count Time: 1 min, Background Subtract: none, Cross talk reduction: Off).
Data was analyzed in Excel® (Microsoft®) and ActivityBase® (Idbs®). […] All data was expressed as a percentage of the positive control. […]

The subject of series [2] is HCV replicon cells (2209-23), genotype 1b replicon. The series can be described thus: HCV replicon assay (Renilla luciferase reporter). The settings on record: Hepatitis C virus, 72 h; 2209-23 cells, three days incubation, luciferase activity. It counts as cell-based, HCV genotype 1b.
A further series can be described thus: in vitro. Particulars: human.

In turn, `COc1c(C(C)(C)C)cc(-c2ccc(C)[nH]c2=O)c2ccc(-c3ccc(NS(C)(=O)=O)cc3)nc12` [Compound I-2, N-{4-[7-tert-Butyl-8-methoxy-5-(6-methyl-2-oxo-1,2-dihydro-pyridin-3-yl)-quinolin-2-yl]-phenyl}-methanesulfonamide] displayed an IC50 in series [1] of 0.4 nM.
Still for that read-out and setting: to `COc1c(C(C)(C)C)cc(-c2ccc[nH]c2=O)c2ccc(-c3ccc(NS(C)(=O)=O)cc3)nc12` [Compound I-1, N-{4-[7-tert-Butyl-8-methoxy-5-(2-oxo-1,2-dihydro-pyridin-3-yl)-quinolin-2-yl]-phenyl}-methanesulfonamide] belongs 0.6 nM.
On to `COc1c(C(C)(C)C)cc(-n2ccc(=O)[nH]c2=O)c2ccc(-c3ccc(NS(C)(=O)=O)cc3)nc12` [Compound I-3, N-{4-[7-tert-Butyl-5-(2,4-dioxo-3,4-dihydro-2H-pyrimidin-1-yl)-8-methoxy-quinolin-2-yl]-phenyl}-methanesulfonamide], for which the melting point was in the range of 275 to 278 °C. Moreover, the midpoint of inhibition in series [1], the IC50, lay at 0.2 nM. Further, it took 17 nM to reach half-maximal inhibition in series [2] (IC50). The same compound gave a CC50 at 3 days in “in vitro” of 44000 nM.

What is called IC50 is the concentration that inhibits the measured activity by half. The low end stands for higher potency, the high end for lower potency. Broadly, the melting point is the temperature, or range, at which the solid turns liquid.
